# Columns and labels:
# A375 human melanoma = A375 human melanoma tumors in NSG mice; assay type: in vivo, mouse; conditions: 300 μg i.p. bid for 14 days
# Procedure: FIGS. 10D-10E. […] Data are expressed as means±SEM. *P<0.05 (Student's t-test). Mean survival time (MST) is increased in mice treated with the compound of Formula (III) as compared to Control group (FIG. 10E).
# (§1) Mice were anesthetized with isoflurane, and tumor cell lines (B16, A375, and 4T1) were gently injected subcutaneously in the flanks or mammary glands of mice. One hundred thousand cells (1×10^5 cells) were injected per mouse for most of the experiments. However, twenty-five thousand cells (25×10^3 cells) were injected per mouse for the experiments using the compound of Formula (III). Upon 4 hrs post-implantation, 300 μg of the compound of Formula (III) was administered twice a day intraperitoneally for 14 days. Tumor growth was monitored three times per week by digital caliper (Fisherbrand™ Traceable™ Digital Calipers).
# To assess if the anti-tumor effects of the compound of Formula (III) were generalizable to human diseases, the efficacy in an NSG humanized mouse model of A375 human melanoma was also tested. […] Thus, the compound of Formula (III) can inhibit Sb9 in melanoma tumor cells and render them susceptible to GrB-mediated apoptosis.
# 4T1 breast tumors = assay: 4T1 breast tumor model in BALB/c mice; assay type: in vivo, mouse
# Procedure: as §1
# Sb9 is highly expressed in human primary breast tumor cells (FIG. 6D) and in the stromal cells within the TME (FIGS. 6D-6E). Whether the compound of Formula (III) could be used to treat mice implanted with 4T1 breast tumor cells was therefore determined. […] Treatment with the compound of Formula (III) increased the median survival time (MST) of mice bearing 4T1 breast tumors and receiving treatment with the compound of Formula (III) as compared to mice bearing 4T1 breast tumors and not receiving treatment (MST=28 days vs MST=22 days, respectively) (FIG. 6G).
# For mouse Breast Cancer model, 1×10^5 4T1 cells were subcutaneously implanted into the fourth mammary pad of BABL/c mice, and mice were separated randomly into three groups: Control, compound of Formula (I), and compound of Formula (II). In the compound of Formula (I) group, mice were treated with the compound of Formula (I) for 14 days consecutively ([…], i.p, twice a day). In the compound of Formula (II) group, mice were administrated the compound of Formula (II) 14 days consecutively (300 μg/mouse, i.p, twice a day). Tumor sizes were measured every 3 days from day 5 post-tumor implantation and calculated with formula length×width^2/2.
# B16 melanoma cells = assay: Caspase-3 activity assay (EnzChek Caspase-3 Assay Kit), caspase-3 induction in tumor cells; assay type: cell-based, mouse; conditions: 200 μM
# Outline: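 B16 melanoma cells exposed to compounds for 24 h, lysed on ice 30 min, and lysate incubated with Z-DEVD-R110 substrate about 30 min at room temperature. Fluorescence read at ~496/520 nm against untreated-cell and no-enzyme controls; caspase-3 induction serves as surrogate for GrB activity from Sb9 inhibition.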
# B16-Sb9 KO cells = assay: RT-PCR gene expression in B16-Sb9 KO cells; assay type: cell-based, mouse
# Procedure: Total RNA was prepared from cells using the Quick-RNA MiniPrep kit (Zymo Research, Irvine, Calif., USA), according to the manufacturer's instructions. cDNA was prepared from total RNA using SuperScript III Reverse Transcriptase (Invitrogen). Following reverse transcription, quantitative PCR was performed using a cycling profile consisting of 95° C. for 2 min (Stage I), 30 cycles of 95° C. for 20 s, 58° C. for 30 s, and 70° C. for 30 s (Stage II), and 65° C. for 5 s (Stage III). Fold changes were determined by subtracting Cq values of the loading control from the Cq values of the gene of interest. The results were normalized to untreated controls.
# (§2) To evaluate the off-target effects of the compound of Formula (III) to Sb9 proteins, the B16-Sb9 KO melanoma cells were treated with various concentrations of the compound of Formula (III). […] Furthermore, the antitumor effects of the compound of Formula (III) on the Sb9 KO mice bearing B16-Sb9 KO tumors, as compared to control group were not observed (FIG. 5N).
# B16-Sb9 KO tumors = B16-Sb9 KO tumors in Sb9 KO mice; assay type: in vivo, mouse; conditions: Sb9 KO mice bearing B16-Sb9 KO tumors
# Procedure: FIG. 5N. Tumor growth curve indicates no difference in antitumor effect of the compound of Formula (III) on B16-Sb9 KO tumors in Sb9 KO mice, as compared to the control group. Data are expressed as means±SEM.
# as §2
# MSC-WT cells = assay: ECM fiber production by mesenchymal stem cells; assay type: cell-based, mouse
# Procedure: Isolation and harvest of murine MSCs from either C57BL/6-WT mice or Sb9 KO mice were performed according to the protocol as described previously (Zhu et al., 2010).
# To investigate the effect of the compound of Formula (III) on the tumor stroma, MSC-WT cells were treated with the compound of Formula (III) for 48 hrs.
smiles,measurement,setting,value
"O=C(O)c1ccc2ncoc2c1 [Formula (III), 1,3-benzoxazole-6-carboxylic acid]",MST vs control,A375 human melanoma,increased MST
same,reduction of size of human melanoma tumors vs controls,A375 human melanoma,2.1 fold
same,levels of stromal cells and CAFs in breast tumors,4T1 breast tumors; 17 days post-implantation,reduced levels
same,reduction of size of 4T1-derived tumors vs control,"4T1 breast tumors; BALB/c mice, 300 μg i.p. bid for 14 days",2.5 fold
same,median survival time (MST),"4T1 breast tumors; mice bearing 4T1 breast tumors, 300 μg i.p. bid for 14 days",28 days
same,"increase in caspase-3 activity compared to 3,4-dihydroxybenzoic acid",B16 melanoma cells; 24 h,~4 fold
same,GrB-mediated apoptosis (caspase-3 activity),B16 melanoma cells; GrB inhibitor (368050) 10 μM,induced GrB-mediated apoptosis
same,"gene expression of caspase-3/8, P53, and Bcl-2",B16-Sb9 KO cells,no significant effect
same,antitumor effects vs control group,B16-Sb9 KO tumors,not observed
same,production of fibronectin and collagen I by MSC-WT cells,MSC-WT cells; 48 hrs treatment,reduced the production of fibronectin and collagen I
same,expression of fibronectin and collagen I by MSC-WT cells co-cultured with B16 cells,MSC-WT cells; co-culture with B16-GFP cells,decreased the expression of fibronectin and collagen I

# Reference: patent US20230255906A1, “Targeting Serpin B9 in Cancer” (The Brigham and Women`s Hospital, Inc., priority 2020, published 2023)
